Among the test systems are NCI-H23 lung; CCRF-CEM leukemia; KM12 colon; DU-145 prostate; HL-60(TB) leukemia; EKVX NSCLC; HCC-2998 colon; NCI/ADR-RES ovarian; U251 CNS; SNB-75 CNS; NCI-H522 lung; MDA-MB-231 breast; HOP-92 NSCLC; NCI-H460 lung; SK-OV-3 ovarian; SK-MEL-28 melanoma.
Common to all, as to assay: NCI-60 cell line screen, 48 h

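48-hour exposure; five concentrations; linearly interpolated endpoints. Abbreviation: GI50, concentration required for 50% inhibition of growth. Definition used: TGI = concentration required for complete inhibition of growth.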

As for `CC(C)(CN1CCCCC1)C(/C=C/c1ccc(Cl)cc1)=N\NC(=O)N/N=C(/C=C/c1ccc(Cl)cc1)C(C)(C)CN1CCCCC1`, the TGI with NCI-H23 lung is 10.3 µM; in the assay with CCRF-CEM leukemia it was greater than 21.9 µM; with KM12 colon it was 16.9 µM; with DU-145 prostate, 18 µM; with HL-60(TB) leukemia it was greater than 19.9 µM; with EKVX NSCLC, 18.8 µM. The TGI in the assay on HCC-2998 colon was found to be 16.3 µM; in the assay with NCI/ADR-RES ovarian it was 29.4 µM; with U251 CNS, 12.6 µM; in the assay on SNB-75 CNS it was 12.7 µM; in the assay on NCI-H522 lung, 8.05 µM; in the assay on MDA-MB-231 breast, 7.21 µM. Also, the TGI in the assay on HOP-92 NSCLC was 8.72 µM; in the assay with NCI-H460 lung, 10.2 µM; with SK-OV-3 ovarian, 25.4 µM; with SK-MEL-28 melanoma it was 25.3 µM.

Regarding `COc1ccc(C2=CC(C(C)=C(C(N)=O)C(N)=O)C=C(c3ccc(Br)cc3)C2)c(OC)c1` (centres undefined), the TGI with NCI-H23 lung, in the assay on CCRF-CEM leukemia, with KM12 colon, in the assay on DU-145 prostate, in the assay with HL-60(TB) leukemia and with EKVX NSCLC was greater than 100 µM each time. The TGI in the assay with HCC-2998 colon, in the assay with NCI/ADR-RES ovarian, in the assay with U251 CNS, in the assay with SNB-75 CNS, with NCI-H522 lung and with MDA-MB-231 breast was greater than 100 µM throughout. Also, the TGI in the assay with HOP-92 NSCLC, with NCI-H460 lung, in the assay on SK-OV-3 ovarian and with SK-MEL-28 melanoma was greater than 100 µM in each case.

Regarding `O=C1SC(SCc2ccccc2)=NC12CC2c1ccccc1` (centres undefined), the TGI in the assay on NCI-H23 lung was 42 µM; with CCRF-CEM leukemia it was 11.1 µM; in the assay with KM12 colon it was 33.2 µM; with DU-145 prostate, greater than 81 µM; with HL-60(TB) leukemia it was 21.5 µM; in the assay on EKVX NSCLC, 44 µM. Also, the TGI with HCC-2998 colon was 28.8 µM; in the assay with NCI/ADR-RES ovarian, 63 µM; in the assay with U251 CNS it was 39 µM; in the assay on SNB-75 CNS, 71.6 µM; in the assay with NCI-H522 lung, 33.5 µM; in the assay with MDA-MB-231 breast, 43.5 µM. The TGI in the assay with HOP-92 NSCLC was 53.1 µM; in the assay on NCI-H460 lung, 41.4 µM; with SK-OV-3 ovarian, greater than 100 µM; in the assay on SK-MEL-28 melanoma, 41.5 µM.

On to `CCOC(=O)/C(C#N)=C/c1coc2cc(C)cc(C)c2c1=O`, for which the TGI in the assay with NCI-H23 lung, in the assay with CCRF-CEM leukemia, in the assay with KM12 colon, with DU-145 prostate, in the assay on HL-60(TB) leukemia and in the assay with EKVX NSCLC was greater than 100 µM throughout. In addition, the TGI in the assay with HCC-2998 colon, with NCI/ADR-RES ovarian, with U251 CNS, in the assay on SNB-75 CNS, in the assay with NCI-H522 lung and in the assay on MDA-MB-231 breast was greater than 100 µM in each case. Besides, the TGI in the assay on HOP-92 NSCLC, with NCI-H460 lung, with SK-OV-3 ovarian and in the assay with SK-MEL-28 melanoma was greater than 100 µM each time.

As to `O=C1/C(=C\c2ccc(Cl)cc2Cl)Sc2scc(-c3ccc(O)c(O)c3)[n+]21`, the TGI in the assay with NCI-H23 lung is 31.3 µM; in the assay on CCRF-CEM leukemia, 39.4 µM; with KM12 colon, 33.9 µM; in the assay with DU-145 prostate, 41.9 µM; in the assay with HL-60(TB) leukemia, 29.8 µM; in the assay on EKVX NSCLC, 49 µM. The TGI in the assay on HCC-2998 colon was 40.9 µM; in the assay with NCI/ADR-RES ovarian, 35.6 µM; with U251 CNS it was 25.5 µM; in the assay with SNB-75 CNS it was 53.4 µM; in the assay with NCI-H522 lung it was 39.4 µM; with MDA-MB-231 breast it was 61.2 µM. The TGI was 23.1 µM with HOP-92 NSCLC, 48.2 µM in the assay with NCI-H460 lung, 39.2 µM in the assay on SK-OV-3 ovarian and 31.7 µM in the assay with SK-MEL-28 melanoma.

For `COc1ccccc1CC(=O)C(O)(C(F)(F)F)C(F)(F)F`, the TGI in the assay with NCI-H23 lung, in the assay on CCRF-CEM leukemia, with KM12 colon, in the assay on DU-145 prostate, in the assay with HL-60(TB) leukemia and in the assay with EKVX NSCLC was greater than 100 µM in each case. Moreover, the TGI with HCC-2998 colon, with NCI/ADR-RES ovarian, in the assay on U251 CNS, with SNB-75 CNS, in the assay with NCI-H522 lung and with MDA-MB-231 breast was greater than 100 µM in each case. Besides, the TGI in the assay on HOP-92 NSCLC, in the assay with NCI-H460 lung, with SK-OV-3 ovarian and in the assay with SK-MEL-28 melanoma was greater than 100 µM each time.

Turning to `Cc1ccc(S(=O)(=O)N2C3C=CC(C3)[C@@H]2C(Cl)(Cl)Cl)cc1` (some centres undefined), the TGI in the assay with NCI-H23 lung was greater than 100 µM; in the assay on CCRF-CEM leukemia, 71.2 µM; with KM12 colon, 85.5 µM; in the assay with DU-145 prostate it was greater than 81.2 µM; with HL-60(TB) leukemia, greater than 47 µM; in the assay with EKVX NSCLC, 55 µM. The TGI in the assay on HCC-2998 colon was determined as 48.7 µM; with NCI/ADR-RES ovarian, 44.6 µM; with U251 CNS, 40.1 µM; in the assay with SNB-75 CNS it was 51.2 µM; in the assay with NCI-H522 lung, 41.3 µM; with MDA-MB-231 breast, 33.3 µM. The TGI in the assay on HOP-92 NSCLC was 38.1 µM; with NCI-H460 lung, 35.5 µM; with SK-OV-3 ovarian, greater than 100 µM; in the assay with SK-MEL-28 melanoma, 57.2 µM. Further, the GI50 in the assay on SK-OV-3 ovarian was 39.2 µM.

As for `O=c1[nH]c(=O)c2c3n(cc2[nH]1)CCCCC3`, the TGI with NCI-H23 lung, in the assay with CCRF-CEM leukemia, with KM12 colon, in the assay with DU-145 prostate, in the assay with HL-60(TB) leukemia and with EKVX NSCLC was greater than 100 µM each time. In addition, the TGI in the assay with HCC-2998 colon, in the assay with NCI/ADR-RES ovarian, with U251 CNS, in the assay with SNB-75 CNS, with NCI-H522 lung and in the assay on MDA-MB-231 breast was greater than 100 µM each time. For the same molecule, the TGI with HOP-92 NSCLC, in the assay with NCI-H460 lung, in the assay on SK-OV-3 ovarian and with SK-MEL-28 melanoma was greater than 100 µM throughout.

The record behind these values is PubChem BioAssay (NCI).
